# Test results taken from ChEMBL document CHEMBL3797079, “Synergistic reduction of HIV-1 infectivity by 5-azacytidine and inhibitors of ribonucleotide reductase” (Bioorg Med Chem, 2016).
# Active and inactive are the calls of the source. The calls are words filed in the database; no cut-off is given here.
# Legend:
# [1] = test system: U373-MAGI; experiment: Reduction in dCTP level in human U373-MAGI cells at 50 uM after 6 hrs by LC-MS/MS analysis; type: functional, cell-based
# [2] = test system: U373-MAGI; experiment: Increase in 5-aza-dCTP/dCTP ratio in human U373-MAGI cells at 200 uM preincubated for 2 hrs followed by 5-aza-C addition measured after 4 hrs by LC-MS/MS analysis relative to 5-aza-C; type: functional, cell-based
# [3] = test system: Human immunodeficiency virus 1; experiment: Antiviral activity against VSV-G pseudotyped HIV-1 NL4-3 infected in human U373-MAGI cells assessed as Nef mutation at 50 uM incubated for 4 hrs prior to infection measured at 72 hrs post infection by illumina sequencing method (reference value: 22.6%); type: functional
# [4] = test system: Human immunodeficiency virus 1; experiment: Potentiation of 5-Aza-C-induced antiviral activity against VSV-G pseudotyped HIV-1 NL4-3 infected in human U373-MAGI cells assessed as decrease in 5-Aza-C EC50 at 50 uM preincubated for 2 hrs followed by 5-Aza-C addition for 2 hrs and subsequent viral infection measured at 72 hrs post infection by flow cytometric analysis relative to control; type: functional
# [5] = test system: U373-MAGI; experiment: Reduction in dATP level in human U373-MAGI cells at 200 uM after 6 hrs by LC-MS/MS analysis; type: functional, cell-based
# [6] = test system: Human immunodeficiency virus 1; experiment: Antiviral activity against VSV-G pseudotyped HIV-1 NL4-3 infected in human U373-MAGI cells assessed as increase in frequency of G to C transversion at 50 uM incubated for 4 hrs prior to infection measured at 72 hrs post infection by illumina sequencing method relative to control; type: functional
# [7] = test system: Human immunodeficiency virus 1; experiment: Antiviral activity against VSV-G pseudotyped HIV-1 NL4-3 infected in human U373-MAGI cells assessed as increase in mutation frequency at 50 uM incubated for 4 hrs prior to infection measured at 72 hrs post infection by illumina sequencing method; type: functional
# [8] = test system: Human immunodeficiency virus 1; experiment: Antiviral activity against VSV-G pseudotyped HIV-1 NL4-3 infected in human U373-MAGI cells assessed as Pol mutation at 50 uM incubated for 4 hrs prior to infection measured at 72 hrs post infection by illumina sequencing method (reference value: 18.5%); type: functional
# [9] = test system: Human immunodeficiency virus 1; experiment: (§1) Potentiation of 5-Aza-dC-induced antiviral activity against VSV-G pseudotyped HIV-1 NL4-3 infected in human U373-MAGI cells assessed as increase in total mutation frequency at 50 uM incubated for 4 hrs preinfection followed by 5-Aza-C addition for 2 hrs preinfection and subsequent viral infection measured at 72 hrs post infection by illumina sequencing method relative to control; type: functional, organism-based
# [10] = test system: Human immunodeficiency virus 1; experiment: Antiviral activity against VSV-G pseudotyped HIV-1 NL4-3 infected in human U373-MAGI cells assessed as reduction in gag level at 50 uM measured at 12 to 72 hrs post infection by qPCR method; type: functional, organism-based
# [11] = test system: Human immunodeficiency virus 1; experiment: Antiviral activity against VSV-G pseudotyped HIV-1 NL4-3 infected in human U373-MAGI cells assessed as reduction in viral infectivity preincubated for 2 to 8 hrs followed by viral infection measured at 72 hrs post infection by flow cytometric analysis; type: functional, organism-based
# [12] = test system: Human immunodeficiency virus 1; experiment: Antiviral activity against VSV-G pseudotyped HIV-1 NL4-3 infected in human U373-MAGI cells assessed as reduction in U5-gag level at 50 uM measured at 12 to 72 hrs post infection by qPCR method; type: functional, organism-based
# [13] = test system: Human immunodeficiency virus 1; experiment: as §1, with “in” for “in total mutation”, “frequency of C to G transversion” for “frequency”; type: functional, organism-based
# [14] = test system: Human immunodeficiency virus 1; experiment: as §1, with “in” for “in total mutation”, “frequency of G to C transversion” for “frequency”; type: functional, organism-based
# [15] = test system: Human immunodeficiency virus 1; experiment: Potentiation of 5-Aza-dC-induced antiviral activity against VSV-G pseudotyped HIV-1 NL4-3 infected in human U373-MAGI cells assessed as reduction in gag level at 50 uM after 2 to 72 hrs by qPCR method; type: functional, organism-based
# [16] = test system: U373-MAGI; experiment: Reduction in dTTP level in human U373-MAGI cells at 50 uM after 6 hrs by LC-MS/MS analysis; type: functional, cell-based
# [17] = test system: U373-MAGI; experiment: Reduction in dCTP level in human U373-MAGI cells at 50 uM preincubated for 2 hrs followed by 5-aza-dC addition measured after 4 hrs by LC-MS/MS analysis relative to 5-aza-dC; type: functional, cell-based
# [18] = test system: Human immunodeficiency virus 1; experiment: Antiviral activity against VSV-G pseudotyped HIV-1 NL4-3 infected in human U373-MAGI cells assessed as reduction in viral infectivity at 50 uM incubated for 4 hrs prior to viral infection measured at 72 hrs post infection by flow cytometric analysis; type: functional, organism-based
# [19] = test system: U373-MAGI; experiment: Effect on 5-aza-dCTP level in human U373-MAGI cells at 50 uM preincubated for 2 hrs followed by 5-aza-dC addition measured after 4 hrs by LC-MS/MS analysis; type: functional, cell-based
# [20] = test system: Human immunodeficiency virus 1; experiment: as §1, with “5-Aza-C-induced” for “5-Aza-dC-induced”, “Nef” for “increase in total”, “mutation” for “mutation frequency”, “(reference value: 22.6%)” for “relative to control”; type: functional
# [21] = test system: U373-MAGI; experiment: Reduction in dRGU-TP level in human U373-MAGI cells at 50 uM preincubated for 2 hrs followed by 5-aza-C addition measured after 4 hrs by LC-MS/MS analysis; type: functional, cell-based
# [22] = test system: U373-MAGI; experiment: Reduction in dCTP level in human U373-MAGI cells at 200 uM preincubated for 2 hrs followed by 5-aza-dC addition measured after 4 hrs by LC-MS/MS analysis relative to 5-aza-dC; type: functional, cell-based
# [23] = test system: U373-MAGI; experiment: Reduction in dCTP level in human U373-MAGI cells at 200 uM after 6 hrs by LC-MS/MS analysis; type: functional, cell-based
# [24] = Reduction in dATP level in human U373-MAGI cells at 50 uM after 6 hrs by LC-MS/MS analysis; type: functional; design: scale not given: the % may be the effect or the level left
# [25] = test system: Human immunodeficiency virus 1; experiment: Antiviral activity against VSV-G pseudotyped HIV-1 NL4-3 infected in human U373-MAGI cells assessed as increase in frequency of C to A transversion at 50 uM incubated for 4 hrs prior to infection measured at 72 hrs post infection by illumina sequencing method relative to control; type: functional
# [26] = test system: Human immunodeficiency virus 1; experiment: Antiviral activity against VSV-G pseudotyped HIV-1 NL4-3 infected in human U373-MAGI cells assessed as Gag mutation at 50 uM incubated for 4 hrs prior to infection measured at 72 hrs post infection by illumina sequencing method (reference value: 18.4%); type: functional
# [27] = test system: Human immunodeficiency virus 1; experiment: as §1, with “5-Aza-C-induced” for “5-Aza-dC-induced”; type: functional, organism-based
# [28] = Cytotoxicity against human U373-MAGI cells at 50 uM measured at 72 hrs by Celltiter-Glo luminescent cell viability assay; type: cell-based
# [29] = test system: Human immunodeficiency virus 1; experiment: Antiviral activity against VSV-G pseudotyped HIV-1 NL4-3 infected in human U373-MAGI cells assessed as increase in frequency of T to G transversion at 50 uM incubated for 4 hrs prior to infection measured at 72 hrs post infection by illumina sequencing method relative to control; type: functional
# [30] = test system: U373-MAGI; experiment: Reduction in dCTP level in human U373-MAGI cells at 200 uM preincubated for 2 hrs followed by 5-aza-C addition measured after 4 hrs by LC-MS/MS analysis relative to 5-aza-C; type: functional, cell-based
smiles,measurement,setting,value
Oc1ccc(/C=C/c2cc(O)cc(O)c2)cc1 [RESVERATROL],Activity,[1],inactive
same,Activity,[2],inactive
same,Activity,[3],18.5%
same,fold change (FC),[4],2.5
same,Activity,[5],Active
same,fold change (FC),[6],2
same,fold change (FC),[7],1.5
same,Activity,[8],19%
same,Activity,[9],inactive
same,Activity,[10],inactive
same,Activity,[11],Active
same,Activity,[12],inactive
same,Activity,[13],inactive
same,Activity,[14],inactive
same,Activity,[15],Active
same,Activity,[16],inactive
same,Activity,[17],Active
same,Activity,[18],Active
same,Activity,[19],inactive
same,Activity,[20],17.1%
same,Activity,[21],inactive
same,Activity,[22],Active
same,Activity,[23],Active
same,Activity,[24],30%
same,fold change (FC),[25],1.3
same,Activity,[26],16.6%
same,Activity,[27],inactive
same,Activity,[28],Non-toxic
same,fold change (FC),[29],3.2
same,Activity,[30],Active
